Where only a bound is given, the exact number is not on record here.

For one experiment, the target named is T1, pSTAT6 (pY641-STAT6) (Homo sapiens, UniProt P42226).
T1 construct: host or cells: cryopreserved PBMC
T1 sequence (P42226 1-847): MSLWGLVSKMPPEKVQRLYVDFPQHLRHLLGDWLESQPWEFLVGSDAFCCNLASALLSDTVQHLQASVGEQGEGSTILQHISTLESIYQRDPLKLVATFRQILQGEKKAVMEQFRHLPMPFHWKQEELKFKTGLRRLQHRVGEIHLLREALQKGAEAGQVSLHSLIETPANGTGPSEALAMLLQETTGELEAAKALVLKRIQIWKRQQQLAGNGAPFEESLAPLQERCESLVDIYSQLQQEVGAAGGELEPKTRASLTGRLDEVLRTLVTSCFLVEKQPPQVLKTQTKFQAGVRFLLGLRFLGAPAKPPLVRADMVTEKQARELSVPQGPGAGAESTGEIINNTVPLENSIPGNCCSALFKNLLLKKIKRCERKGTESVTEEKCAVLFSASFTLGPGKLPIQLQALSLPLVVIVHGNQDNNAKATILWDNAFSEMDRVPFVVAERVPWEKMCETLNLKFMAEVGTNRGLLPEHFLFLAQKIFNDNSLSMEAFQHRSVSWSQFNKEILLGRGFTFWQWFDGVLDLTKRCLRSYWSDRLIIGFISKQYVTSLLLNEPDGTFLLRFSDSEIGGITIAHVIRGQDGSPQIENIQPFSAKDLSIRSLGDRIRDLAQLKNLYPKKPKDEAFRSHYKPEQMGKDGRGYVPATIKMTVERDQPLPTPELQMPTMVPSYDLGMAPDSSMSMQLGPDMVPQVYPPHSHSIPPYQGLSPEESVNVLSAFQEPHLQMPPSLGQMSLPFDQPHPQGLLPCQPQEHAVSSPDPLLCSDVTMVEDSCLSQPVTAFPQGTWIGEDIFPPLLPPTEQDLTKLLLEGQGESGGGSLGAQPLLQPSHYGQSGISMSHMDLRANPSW
In words: MSD-pSTAT-PBMC Assay (pSTAT6, IL-4 stimulated). Format: cell-based. The settings on record: compound 3 hrs, then 1 ng/mL IL-4 for 10 min. The text has this: Cryopreserved Peripheral Blood Mononuclear Cells (PBMC) are from AllCells. Recombinant Human IL-4 and IL-6 are from Peprotech. Mouse monoclonal anti-STAT3 antibody, rabbit monoclonal anti-pY705-STAT3 antibody, rabbit monoclonal Anti-pY641-STAT6 antibody, and lysis buffer are from Cell Signaling Technology (CST). Mouse monoclonal anti-STAT6 antibody is from BioLegend. Assay plates, blocker, and anti-rabbit secondary antibody are from Meso Scale Discovery (MSD).
Cryopreserved PBMCs were thawed out and allowed to recover overnight in IMDM+10% heat-inactivated FBS prior to plating 50,000 (STAT3) or 25,000 (STAT6) cells per well in 96-well U-bottom tissue culture plates. Cells were treated with compound for 3 hrs, then stimulated with 10 ng/mL IL-6 (STAT3) or 1 ng/mL IL-4 (STAT6) for 10 min. Cells were then spun down and washed with ice-cold PBS prior to lysing the cell pellet with 1× lysis buffer (CST) with 1× HALT protease and phosphatase inhibitor cocktail (Thermo). Lysates were transferred to and incubated overnight at 4° C. with shaking in QuickPlex 96-well high bind assay plates (MSD) pre-coated overnight with 30 μL per well of 0.6 μg/mL mouse monoclonal anti-STAT3 antibody (STAT3) or 2 μg/mL mouse monoclonal anti-STAT6 antibody (STAT6) in 1×PBS, and pre-blocked for 1 hour with 3% Blocker-A (MSD). Captured protein in the assay plates were then washed and probed with 25 μL per well of 0.25 μg/ml rabbit monoclonal anti-pY705-STAT3 antibody (STAT3) or 0.18 μg/ml rabbit monoclonal Anti-pY641-STAT6 antibody (STAT6) in 1% Blocker-A for 1 hour at room temperature with shaking, then washed and probed with 25 ul per well of 1 ug/mi Sulfo-TAG Labeled Goat Anti-Rabbit Antibody (MSD) in 1% Blocker-A for 1 hour at room temperature with shaking. Assay plates were then washed and 150 μL of 1× Read Buffer-T (MSD) was added to each well prior to reading on an SQ120 MSD Plate Reader. Assay signal from each sample was subtracted by the signal from unstimulated control wells and normalized to DMSO control wells. IC50 values were calculated using Graph Pad Prism Dose-Response Nonlinear Regression with variable slope. For both pSTAT3 and pSTAT6 A=≤100 nM; B=>100-1000 nM; C=>1000-3000 nM; and D=>3 μM.

For the next experiment, the target named is T2, pSTAT3 (pY705-STAT3) (Homo sapiens, UniProt P40763).
T2 construct: host or cells: cryopreserved PBMC
As to the kind of experiment: MSD-pSTAT-PBMC Assay (pSTAT3, IL-6 stimulated). Format: cell-based. The settings on record: PBMC, compound 3 hrs, then 10 ng/mL IL-6 for 10 min; MSD pY705-STAT3; read-out: pSTAT3. In short, it runs like this:
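Human PBMCs (50,000 cells/well for STAT3, 25,000 for STAT6) treated with compound 3 h, then stimulated 10 min with 10 ng/mL IL-6 or 1 ng/mL IL-4. Lysate pSTAT3 (pY705) or pSTAT6 (pY641) measured by MSD sandwich electrochemiluminescence. Signal minus unstimulated, normalized to DMSO; IC50 by variable-slope nonlinear regression.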

T2 sequence (P40763 whole entry): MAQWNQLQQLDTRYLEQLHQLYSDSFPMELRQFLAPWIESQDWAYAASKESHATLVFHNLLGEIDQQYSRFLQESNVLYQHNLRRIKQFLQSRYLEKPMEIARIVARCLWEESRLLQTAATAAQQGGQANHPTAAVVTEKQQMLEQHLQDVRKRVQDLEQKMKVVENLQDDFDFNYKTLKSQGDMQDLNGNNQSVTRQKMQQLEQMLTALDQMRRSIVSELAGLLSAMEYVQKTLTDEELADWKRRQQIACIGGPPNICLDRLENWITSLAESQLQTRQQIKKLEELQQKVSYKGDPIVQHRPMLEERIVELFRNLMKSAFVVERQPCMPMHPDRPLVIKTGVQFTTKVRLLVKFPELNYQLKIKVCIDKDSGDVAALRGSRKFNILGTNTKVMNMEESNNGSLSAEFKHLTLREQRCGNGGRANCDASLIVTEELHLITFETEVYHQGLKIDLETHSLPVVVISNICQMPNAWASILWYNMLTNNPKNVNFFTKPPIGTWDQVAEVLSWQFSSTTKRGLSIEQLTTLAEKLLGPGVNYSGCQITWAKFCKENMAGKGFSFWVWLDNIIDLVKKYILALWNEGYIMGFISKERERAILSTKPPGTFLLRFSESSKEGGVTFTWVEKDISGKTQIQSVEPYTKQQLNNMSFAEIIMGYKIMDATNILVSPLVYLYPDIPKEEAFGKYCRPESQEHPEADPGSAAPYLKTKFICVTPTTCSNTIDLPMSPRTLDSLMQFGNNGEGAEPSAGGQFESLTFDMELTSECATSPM

For the compound `CC(C)OC(=O)OCOP(=O)(Cc1ccc2sc(C(=O)N[C@H]3C[C@@H]4C[C@@H]4C[C@H]4CC[C@@H](C(=O)N5CC(C(=O)N6CCOCC6)C5)N4C3=O)cc2c1)OCOC(=O)OC(C)C` [Compound 148], the IC50 against pSTAT6 (pY641-STAT6) was above 3 µM; at pSTAT3 (pY705-STAT3), 100 to 1000 nM.

As to `CCCC(=O)SCCOP(=O)(Cc1ccc2sc(C(=O)N[C@H]3C[C@@H]4C[C@@H]4C[C@H]4CC[C@@H](C(=O)N5CC(C(=O)N6CCOCC6)C5)N4C3=O)cc2c1)OCCSC(=O)CCC` [Compound 149, S,S′-(((((2-(((3S,6S,7aS, 8aR,9aR)-3-(3-(morpholine-4-carbonyl)azetidine-1-carbonyl)-5-oxodecahydro-1H-cyclopropa[d]pyrrolo[1,2-a]azocin-6-yl)carbamoyl)benzo[b]thiophen-5-yl)methyl)phosphoryl)bis(oxy))bis(ethane-2,1-diyl)) dibutanethioate], the IC50 on pSTAT6 (pY641-STAT6) is above 3 µM; on pSTAT3 (pY705-STAT3), 1000 to 3000 nM.

Turning to `CC(C)(C)C(=O)OCOP(=O)(Cc1ccc2sc(C(=O)N[C@H]3C[C@@H]4C[C@@H]4C[C@H]4CC[C@@H](C(=O)N5CC(C(=O)N6CCOCC6)C5)N4C3=O)cc2c1)OCOC(=O)C(C)(C)C` [Compound 150, ((((2-(((3S,6S, 7aS,8aR,9aR)-3-(3-morpholine-4-carbonyl)azetidine-1-carbonyl)-5-oxodecahydro-1H-cyclopropa [d]pyrrolo[1,2-a]azocin-6-yl)carbamoyl)benzo [b]thiophen-5-yl)methyl)phosphoryl) bis(oxy)) bis(methylene) bis(2,2-dimethyl-propanoate)], the IC50 against pSTAT6 (pY641-STAT6) is above 3 µM; on pSTAT3 (pY705-STAT3), below 100 nM.

For `CC(C)(C)C(=O)SCCOP(=O)(Cc1ccc2sc(C(=O)N[C@H]3C[C@@H]4C[C@@H]4C[C@H]4CC[C@@H](C(=O)N5CC(n6ccnc6)C5)N4C3=O)cc2c1)OCCSC(=O)C(C)(C)C` [Compound 151, S,S′-(((((2-(((3S,6S,7aS, 8aR,9aR)-3-(3-(1H-imidazol-1-yl)azetidine-1-carbonyl)-5-oxodecahydro-1H-cyclopropa [d]pyrrolo[1,2-a]azocin-6-yl)carbamoyl)benzo[b]thiophen-5-yl)methyl)phosphoryl)bis(oxy))bis(ethane-2,1-diyl)) bis(2,2-dimethyl-propanethioate)], the IC50 against pSTAT6 (pY641-STAT6) was above 3 µM; at pSTAT3 (pY705-STAT3), 100 to 1000 nM.

In the case of `CC(C)OC(=O)OCOP(=O)(OCOC(=O)OC(C)C)[C@@H](F)c1ccc2sc(C(=O)N[C@H]3C[C@H]4C[C@H]4C[C@H]4CC[C@@H](C(=O)N5CC(c6cccnc6)C5)N4C3=O)cc2c1` [Compound 152, ((((R)-fluoro(2-(((3S,6S,7aR, 8aS,9aR)-5-oxo-3-(3-(pyridin-3-yl)azetidine-1-carbonyl)decahydro-1H-cyclopropa[d]pyrrolo[1,2-a]azocin-6-yl)carbamoyl)benzo[b]thiophen-5-yl)methyl)phosphoryl)bis(oxy)) bis(methylene) diisopropyl bis(carbonate)], the IC50 against pSTAT6 (pY641-STAT6) was 0.1 to 1 µM; on pSTAT3 (pY705-STAT3), below 100 nM.

On to `CC(C)OC(=O)[C@H](C)NP(=O)(Cc1ccc2sc(C(=O)N[C@H]3C[C@@H]4C[C@@H]4C[C@H]4CC[C@@H](C(=O)N5CC(C(=O)N6CCOCC6)C5)N4C3=O)cc2c1)Oc1ccccc1` (stereo partly drawn) [Compound 154, isopropyl (((2-(((3S,6S,7aS, 8aR,9aR)-3-(3-(morpholine-4-carbonyl)azetidine-1-carbonyl)-5-oxodecahydro-1H-cyclopropa[d]pyrrolo[1,2-a]azocin-6-yl)carbamoyl)benzo[b]thiophen-5-yl)methyl) (phenoxy) (phosphoryl)-L-alaninate], for which the IC50 was above 3 µM against pSTAT6 (pY641-STAT6) and 100 to 1000 nM at pSTAT3 (pY705-STAT3).

Regarding `CC(C)(C)C(=O)OCOP(=O)(Cc1ccc2sc(C(=O)N[C@H]3C[C@H]4C[C@H]4C[C@H]4CC[C@@H](C(=O)N5CC(c6ccccn6)C5)N4C3=O)cc2c1)OCOC(=O)C(C)(C)C` [Compound 155, ((((2-(((3S,6S,7aR, 8aS,9aR)-5-oxo-3-(3-(pyridin-2-yl)azetidine-1-carbonyl)decahydro-1H-cyclopropa[d]pyrrolo[1,2-a]azocin-6-yl)carbamoyl)benzo[b]thiophen-5-yl)methyl)phosphoryl)bis(oxy)) bis(methylene) bis(2,2-dimethyl-pronanoate)], the results for the IC50 against pSTAT6 (pY641-STAT6) and on pSTAT3 (pY705-STAT3) were 1 to 3 µM and below 100 nM, respectively.

For the compound `CC(C)(C)C(=O)OCOP(=O)(Cc1ccc2sc(C(=O)N[C@H]3C[C@@H]4C[C@@H]4C[C@H]4CC[C@@H](C(=O)N5CC(n6ccnc6)C5)N4C3=O)cc2c1)OCOC(=O)C(C)(C)C` [Compound 156, ((((2-(((3S,6S,7aS, 8aR,9aR)-3-(3-(1H-imidazol-1-yl)azetidine-1-carbonyl)-5-oxodecahydro-1H-cyclopropa[d]pyrrolo[1,2-a]azocin-6-yl)carbamoyl)benzo[b]thiophen-5-yl)methyl)phosphoryl)bis(oxy)) bis(methylene) bis(2,2-dimethyl-propanoate)], the IC50 was above 3 µM against pSTAT6 (pY641-STAT6) and below 100 nM on pSTAT3 (pY705-STAT3).

With `CC(C)OC(=O)OCOP(=O)(Cc1ccc2sc(C(=O)N[C@H]3C[C@@H]4C[C@@H]4C[C@H]4CC[C@@H](C(=O)N5CC(n6ccnc6)C5)N4C3=O)cc2c1)OCOC(=O)OC(C)C` [Compound 157, ((((2-(((3S,6S,7aS, 8aR,9aR)-3-(3-(1H-imidazol-1-yl)azetidine-1-carbonyl)-5-oxodecahydro-1H-cyclopropa[d]pyrrolo[1,2-a]azocin-6-yl)carbamoyl)benzo[b]thiophen-5-yl)methyl)phosphoryl)bis(oxy)) bis(methylene) diisopropyl bis(carbonate)], the IC50 against pSTAT6 (pY641-STAT6) was above 3 µM; at pSTAT3 (pY705-STAT3) it was below 100 nM.

With `CCCC(=O)SCCOP(=O)(Cc1ccc2sc(C(=O)N[C@H]3C[C@@H]4C[C@@H]4C[C@H]4CC[C@@H](C(=O)N5CC(n6ccnc6)C5)N4C3=O)cc2c1)OCCSC(=O)CCC` [Compound 158, S,S′-(((((2-(((3S,6S,7aS, 8aR,9aR)-3-(3-(1H-imidazol-1-yl)azetidine-1-carbonyl)-5-oxodecahydro-1H-cyclopropa[d]pyrrolo[1,2-a]azocin-6-yl)carbamoyl)benzo[b]thiophen-5-yl)methyl)phosphoryl)bis(oxy))bis(ethane-2,1-diyl)) dibutanethioate], the IC50 against pSTAT6 (pY641-STAT6) was above 3 µM; at pSTAT3 (pY705-STAT3), 100 to 1000 nM.

For the compound `COCC(C)(C)OC(=O)OCOP(=O)(OCOC(=O)OC(C)(C)COC)C(F)(F)c1ccc2sc(C(=O)N[C@H]3C[C@@H]4C[C@@H]4C[C@H]4CC[C@@H](C(=O)N5CC(C(=O)N6CCOCC6)C5)N4C3=O)cc2c1` [Compound 161, (((difluoro(2-(((3S,6S,7aS, 8aR,9aR)-3-(3-(morpholine-4-carbonyl)azetidine-1-carbonyl)-5-oxodecahydro-1H-cyclopropa [d]pyrrolo[1,2-a]azocin-6-yl)carbamoyl)benzo[b]thiophen-5-yl)methyl)phosphoryl)bis(oxy)) bis(methylene) bis(1-methoxy-2-methylpropan-2-yl) bis(carbonate)], the IC50 against pSTAT6 (pY641-STAT6) was above 3 µM; at pSTAT3 (pY705-STAT3), below 100 nM.

These data come from US20250215030A1, “STAT MODULATORS AND USES THEREOF” (Recludix Pharma, Inc., priority 2022, published 2025).
